Results published in paper PMC13185819, “De Novo Multi‐Mechanism Antimicrobial Peptide Design via Multimodal Deep Learning” (Advanced Science, 2026).
≈ marks a conversion by molar mass, not a printed value. Residues, ends and D or L forms follow the SMILES beside them.

Assays:
Assay type in all cases: cell-based
[1] = test system: E. faecium 1042
Protocol: (§1) Standard strains included S. aureus ATCC33592, S. aureus CICC25138, and Salmonella enterica ATCC14028, which were purchased from the China Center of Industrial Culture Collection (CICC). Standard strains including E.coli CMCC44102, Salmonella enterica CMCC50071, and S. aureus CMCC26003 were purchased from the National Center for Medical Culture Collections (CMCC). […] All experiments using the above strains were carried out in a BSL‐2 laboratory. The clinical laboratory of Qilu Hospital detected bacterial resistance to various antibiotics. All strains were streaked on Nutrient Broth (NB) agar medium and incubated overnight at 37°C.
(§2) The antimicrobial activity of the peptides was examined in sterile 96‐well plates using the broth microdilution according to the CLSI standard. The colonies were suspended in saline solution, the turbidity was adjusted to McFarland 0.5 to reach a bacterial concentration of 10^8 CFU/mL, and again diluted 100 times for the inhibition test. Then, 50 µL of bacterial suspension at 1 × 10^6 CFU/mL was incubated with the same volume of different concentrations of peptide solution [serial twofold dilutions in Mueller–Hinton Broth (Hopebio)]. […] All experiments were performed with three independent replicates.

[2] = test system: E. faecium 21
Protocol: as §1, §2

[3] = test system: E.coli 110
Protocol: as §1, §2

[4] = test system: E.coli 208
Protocol: as §1, §2

[5] = test system: E.coli CMCC44102
Protocol: as §1, §2

[6] = test system: P. aeruginosa 119
Protocol: as §1, §2

[7] = test system: S. aureus 103
Protocol: as §1, §2

[8] = test system: S. aureus 129
Protocol: as §1, §2

[9] = test system: S. aureus ATCC33592
Protocol: as §1, §2

[10] = test system: S. aureus CICC25138
Protocol: as §1, §2

[11] = test system: S. aureus CMCC26003
Protocol: as §1, §2

[12] = test system: K. pneumoniae 7713
Protocol: as §1, §2

[13] = test system: P. aeruginosa 112
Protocol: as §1, §2

[14] = test system: P. aeruginosa 116
Protocol: as §1, §2

| SMILES | MIC (μg/mL) E. faecium 1042 [1] [µg/mL] | MIC (μg/mL) E. faecium 21 [2] [µg/mL] | MIC (μg/mL) E.coli 110 [3] [µg/mL] | MIC (μg/mL) E.coli 208 [4] [µg/mL] | MIC (μg/mL) E.coli CMCC44102 [5] [µg/mL] | MIC (μg/mL) P. aeruginosa 119 [6] [µg/mL] | MIC (μg/mL) S. aureus 103 [7] [µg/mL] | MIC (μg/mL) S. aureus 129 [8] [µg/mL] | MIC (μg/mL) S. aureus ATCC33592 [9] [µg/mL] | MIC (μg/mL) S. aureus CICC25138 [10] [µg/mL] | MIC (μg/mL) S. aureus CMCC26003 [11] [µg/mL] | MIC (μg/mL) K. pneumoniae 7713 [12] [µg/mL] | MIC (μg/mL) P. aeruginosa 112 [13] [µg/mL] | MIC (μg/mL) P. aeruginosa 116 [14] [µg/mL] |
| --- | --- | --- | --- | --- | --- | --- | --- | --- | --- | --- | --- | --- | --- | --- |
| CC[C@H](C)[C@H](NC(=O)[C@H](CC(C)C)NC(=O)[C@@H](NC(=O)[C@H](C)NC(=O)[C@@H](N)CC(C)C)C(C)C)C(=O)N[C@@H](Cc1ccccc1)C(=O)N[C@H](C(=O)N[C@@H](CCCNC(=N)N)C(=O)N[C@@H](CCCNC(=N)N)C(=O)N[C@@H](CCCCN)C(=O)N[C@@H](CCC(N)=O)C(=O)N[C@@H](CC(C)C)C(N)=O)C(C)C [QLX-3DV-17] (H-LAVLIFVRRKQL-NH2) | 8 (≈ 5.5 µM) | 16 (≈ 11 µM) | 32 (≈ 22 µM) | 16 (≈ 11 µM) | 8 (≈ 5.5 µM) | 64 (≈ 44 µM) | 32 (≈ 22 µM) | 16 (≈ 11 µM) | 64 (≈ 44 µM) | 32 (≈ 22 µM) | 4 (≈ 2.75 µM) |  |  |  |
| CC[C@H](C)[C@H](NC(=O)[C@H](Cc1c[nH]c2ccccc12)NC(=O)[C@@H]1CCCN1C(=O)[C@H](CC(C)C)NC(=O)[C@H](CCCCN)NC(=O)[C@H](Cc1c[nH]c2ccccc12)NC(=O)[C@H](C)NC(=O)[C@H](CCCNC(=N)N)NC(=O)[C@H](CCC(N)=O)NC(=O)[C@H](CCC(N)=O)NC(=O)[C@@H](N)Cc1ccc(O)cc1)C(=O)N[C@@H](CC(C)C)C(=O)N[C@@H](CCCNC(=N)N)C(=O)N[C@@H](Cc1ccccc1)C(=O)N[C@@H](CC(C)C)C(=O)N[C@@H](CCCNC(=N)N)C(=O)N[C@@H](CC(C)C)C(N)=O [QLX-3DV-18] (H-YQQRAWKLPWILRFLRL-NH2) | 8 (≈ 3.5 µM) | 8 (≈ 3.5 µM) | 32 (≈ 14 µM) | 8 (≈ 3.5 µM) | 16 (≈ 7 µM) | 64 (≈ 28 µM) | 16 (≈ 7 µM) | 32 (≈ 14 µM) |  | 16 (≈ 7 µM) | 16 (≈ 7 µM) | 64 (≈ 28 µM) | 8 (≈ 3.5 µM) |  |
| CC[C@H](C)[C@H](N)C(=O)N[C@H](C(=O)N[C@H](C(=O)N[C@@H](CCCNC(=N)N)C(=O)N[C@@H](Cc1ccccc1)C(=O)N[C@@H](CC(C)C)C(=O)N[C@@H](CCCCN)C(=O)N1CCC[C@H]1C(=O)N[C@@H](CCCCN)C(=O)N[C@@H](CC(C)C)C(=O)N[C@@H](CC(C)C)C(=O)N[C@@H](CCCCN)C(=O)N[C@@H](C)C(=O)N[C@@H](CC(C)C)C(=O)N[C@@H](CCCCN)C(N)=O)[C@@H](C)CC)C(C)C [QLX-3DV-19] (H-IVIRFLKPKLLKALK-NH2) |  | 16 (≈ 8.99 µM) | 8 (≈ 4.5 µM) | 32 (≈ 18 µM) | 16 (≈ 8.99 µM) | 128 (≈ 71.9 µM) | 64 (≈ 36 µM) | 128 (≈ 71.9 µM) | 128 (≈ 71.9 µM) | 128 (≈ 71.9 µM) | 4 (≈ 2.25 µM) | 32 (≈ 18 µM) | 16 (≈ 8.99 µM) | 32 (≈ 18 µM) |
| CC[C@H](C)[C@H](N)C(=O)N[C@@H](CCCNC(=N)N)C(=O)N1CCC[C@H]1C(=O)N[C@@H](CC(C)C)C(=O)N[C@H](C(=O)N[C@@H](CCC(N)=O)C(=O)N1CCC[C@H]1C(=O)N[C@@H](CCCNC(=N)N)C(=O)N[C@@H](Cc1ccc(O)cc1)C(=O)N[C@@H](CCCNC(=N)N)C(=O)N[C@@H](Cc1ccccc1)C(=O)N[C@@H](Cc1ccc(O)cc1)C(=O)N1CCC[C@H]1C(=O)N[C@@H](CCCNC(=N)N)C(=O)N[C@@H](CCCCN)C(=O)N[C@@H](CCCNC(=N)N)C(=O)N[C@@H](CC(C)C)C(N)=O)C(C)C [QLX-3DV-20] (H-IRPLVQPRYRFYPRKRL-NH2) | 64 (≈ 28.3 µM) | 64 (≈ 28.3 µM) | 32 (≈ 14.2 µM) | 16 (≈ 7.09 µM) | 16 (≈ 7.09 µM) |  |  | 64 (≈ 28.3 µM) |  |  | 16 (≈ 7.09 µM) | 64 (≈ 28.3 µM) | 32 (≈ 14.2 µM) |  |
